Measured values as given in PMC12998938, “Neutrophil store-operated Ca^2+ entry: A correctable biomarker of cystic fibrosis lung disease progression” (Journal of cystic fibrosis : official journal of the …, 2025).
pIC50: −log10 of the molar value.

What was measured:
[1] = tested on: Staphylococcus aureus-infected mice; conditions: ref [21], cited from earlier work
[2] = tested on: ER Ca2+ store release in non-CF neutrophils; experiment: Fluo-4 ER Ca2+ release, non-CF neutrophils; assay type: cell-based, human; conditions: 3 h pre-treatment, 1 μM thapsigargin, no extracellular Ca2+, 2 donors in triplicate
Experimental: (§1) Isolated neutrophils were incubated with peptide or vehicle control for 3 h. For the final hour of treatment, cells were loaded with Fluo-4 direct (Thermofisher) for 45 min at 37°C and 15 min at room temperature as described.
(§2) Fig. 3. ELD607 inhibits SOCE in non-CF and CF neutrophils. (A) and (B) Mean changes in fluo-4 fluorescence as a marker of cytoplasmic Ca^2+ levels in non-CF and CF neutrophils respectively before and after stimulation with 1 μM thapsigargin (Tg). Before stimulation, neutrophils were exposed to vehicle (0.1% DMSO in PBS), 10 μM ELD607 or scrambled peptide (control) for 3 h. N = 10 non-CF and 21 CF donors. Stats show ELD607 vs vehicle or scrambled peptide based on color. […] Neutrophils were stimulated with thapsigargin (1 μM) in the absence of extracellular Ca^2+ to allow the release of Ca^2+ stores to be measured. Extracellular Ca^2+ was then returned so that extracellular Ca^2+ influx could be measured. (C) Mean fold change in Fluo-4 fluorescence during ER store release in non-CF and CF neutrophils. […] (E) Mean fold change in fluo-4 fluorescence during Ca^2+ influx in non-CF and CF neutrophils. […]
(§3) SOCE has 2 phases: release of Ca^2+ from ER stores and Ca^2+ influx from the extracellular space via Ca^2+ channels such as Orai1. […] Once the stores had emptied, extracellular Ca^2+ was reintroduced and Ca^2+ influx was measured (Fig. 3C–F). […]

Orai1 = experiment: SOCE in triple knockout HEK293T cells transfected with Orai1; assay type: cell-based; conditions: TKO + Orai1, vs wild-type HEK293T; thapsigargin; dose response; 7-9 replicates; Orai1, 2, 3 plots differ p<0.001
Excerpt: (§4) We hypothesized that inhibiting SOCE in CF neutrophils may reduce the secretion of neutrophil elastase and other proteins associated with CF lung disease. To validate ELD607’s specificity for Orai1 over Orai2 and Orai3, we first evaluated ELD607 function in HEK293T cells that had Orai1, Orai2 and Orai3 stably knocked out. […] Next we evaluated ELD607’s ability to inhibit SOCE in non-CF and CF neutrophils.
(§5) Supplemental figure 3. […] Dose responses of thapsigargin-induced changes in cytoplasmic Ca^2+ concentrations. These studies were performed in HEK293T where Orai1, Orai2 and Orai3 had been stably knocked down (triple knockout cells, TKO) or in TKO cells that were transiently transfected with Orai1, Orai2 or Orai3 as indicated. All data are from 7-9 replicates per data point from 3 separate experiments.

[3] = tested on: bacterial lung infections in mice; conditions: cited from earlier work
Excerpt: In ... || CF neutrophils with elevated SOCE undergo more degranulation, leading to greater release of proteases/pro-inflammatory mediators. Therefore, increased SOCE may be a driving force for declining CF lung function. However, there is much to do to fully understand this phenomenon, and our data identify an association, not a causality. […] To date, several blood biomarkers have been identified as predictors of CF lung disease. Most biomarkers ( ...

Orai3 = experiment: SOCE in triple knockout HEK293T cells transfected with Orai3; assay type: cell-based
Excerpt: as §4, §5

[4] = tested on: ER Ca2+ store release in CF neutrophils; experiment: Fluo-4 ER Ca2+ release, CF neutrophils; assay type: cell-based, human; conditions: 3 h pre-treatment, 1 μM thapsigargin, no extracellular Ca2+, 3 donors in triplicate, curves non-CF vs CF p<0.0001
Experimental: as §1, §2, §3

[5] = murine models of bacterial lung infections, ref [21]

VHDIVNMLIRG [ELD607, size-optimized SPLUNC1/α6 peptidomimetic]
neutrophilia and neutrophil elastase release ([1]; S. aureus-infected mice): reduces neutrophilia and neutrophil elastase release
neutrophil influx into the lungs ([1]; mice, S. aureus, reduced lung injury, increased survival): reduces neutrophil influx into the lungs of mice
inhibition of ER Ca2+ release [2]: little effect
sensitivity of SOCE to ELD607 (Orai1): restored the sensitivity to ELD607 seen in wild-type HEK293T cells
neutrophilia caused by bacterial infections ([3]; inhaled ELD607, ref [53]): abolished neutrophilia
neutrophilia and lung damage [3, 5]: reduced neutrophilia and lung damage
survival [3, 5]: increased survival
beneficial effects after depletion of alveolar macrophages ([3]; wild-type mice, alveolar macrophages depleted, ref [21]): abolished the beneficial effects of ELD607
sensitivity of SOCE to ELD607 (Orai3; TKO + Orai3, thapsigargin, dose response, 7-9 replicates): relatively insensitive
specificity for Orai1: effect on Orai3 (Orai3; discussion summary of supplemental figure 3): little effect on Orai2 and Orai3
pIC50 [4]: 6.38
